Results on 16 compounds are retold here after patent publication US20210060033A1, “ORALLY ADMINISTERED COMBINATIONS OF BETA-LACTAM ANTIBIOTICS AND AVIBACTAM DERIVATIVES FOR TREATING BACTERIAL INFECTIONS” (priority 2019, published 2021).

Like-named read-outs stand apart in the source and are kept apart here. Bounds are passed on as bounds.

For series [1] the following is noted: in vivo; cited from earlier work.
For series [2] the following is noted: dog, in vivo; cited from earlier work.
For series [3] the following is noted: cynomolgus monkey, in vivo; cited from earlier work.
For series [4] the following is noted: rat, in vivo, po; cited from earlier work.
In another series the test system is 314 Enterobacteriaceae. The series is classed as cell-based. The conditions noted are these: for MIC90 with addition of avibactam: all isolates combined, avibactam at a fixed concentration of 4 μg/mL; for Estimated MIC90: Enterobacteria n = 314 (all isolates combined), avibactam or clavulanic acid fixed at 4 μg/mL in combinations.
The test system of series [5] is ESBL-positive isolates (n = 28). In kind it is cell-based, Enterobacteriaceae. The settings on record: ESBL n = 28; avibactam or clavulanic acid fixed at 4 μg/mL in combinations.
For series [6], the system named is KPC-positive isolates (n = 23). In kind it is cell-based, Enterobacteriaceae. The conditions noted are these: for Estimated MIC90: KPC n = 23, avibactam or clavulanic acid fixed at 4 μg/mL in combinations; for MIC90 with addition of avibactam: KPC-positive isolates, avibactam 4 μg/mL.
Series [7] deals with pAmpC (PlasAmpC) isolates (n = 20). The series is classed as cell-based, Enterobacteriaceae. The settings on record: pAmpC n = 20; avibactam or clavulanic acid fixed at 4 μg/mL in combinations.
The subject of series [8] is OXA-positive isolates (n = 22). The series is classed as cell-based, Enterobacteriaceae. The conditions noted are these: for Estimated MIC90: OXA n = 22, avibactam or clavulanic acid fixed at 4 μg/mL in combinations; for MIC90 with addition of avibactam: OXA-positive isolates, avibactam 4 μg/mL.
A short description of series [9]: Oral administration of avibactam derivative (3) to healthy human volunteers (Example 2), plasma avibactam. In kind it is in vivo. The settings on record: for AUC0-INF: unit not given. As to the method:
The pharmacokinetics of avibactam provided as an orally administered avibactam derivative was determined on healthy human volunteers.
[…] The plasma concentration of avibactam was measured. The free avibactam concentration was adjusted for from 5% to 8% protein binding (AUCfree=AUC0-inf×[…]).

The nature of series [10]: Single ascending oral dose phase 1 study of avibactam derivative (3) (Example 3), avibactam PK. The series is classed as in vivo, human. The settings on record: avibactam in plasma, fed. As to the method:
The pharmacokinetics of avibactam provided as an orally administered avibactam derivative was determined on healthy human volunteers. A randomized, double-blind, placebo-controlled single ascending dose phase 1 study was undertaken with healthy male and female adults. […] Plasma and urine PK samples were collected prior to dosing and at frequent intervals after dosing. […] FIG. 12 also provides an overall estimate of F for the study population (n=24) presented as a conventional box-whisker graphic (median, interquartile range [25-75%] and Tukey whiskers).

Where [11] appears, read: avibactam, oral 300 mg of avibactam derivative (3), healthy.

Regarding `CC(C)(COS(=O)(=O)ON1C(=O)N2C[C@H]1CC[C@H]2C(N)=O)C(=O)OCc1ccccc1` [avibactam derivative (4), benzyl 3-(((((1R,2S,5R)-2-carbamoyl-7-oxo-1,6-diazabicyclo[3.2.1]octan-6-yl)oxy)sulfonyl)oxy)-2,2-dimethylpropanoate], the “oral bioavailability (% F)” value in [1] was “greater than 10 % F”.
In the case of `COC(=O)C(C)(C)COS(=O)(=O)ON1C(=O)N2C[C@H]1CC[C@H]2C(N)=O` [avibactam derivative (10), methyl 3-(((((1R,2S,5R)-2-carbamoyl-7-oxo-1,6-diazabicyclo[3.2.1]octan-6-yl)oxy)sulfonyl)oxy)-2,2-dimethylpropanoate], the “oral bioavailability (% F)” value in series [1] is on record as “greater than 10 % F”.
With `CC(C)OC(=O)C(C)(C)COS(=O)(=O)ON1C(=O)N2C[C@H]1CC[C@H]2C(N)=O` [avibactam derivative (11), isopropyl 3-(((((1R,2S,5R)-2-carbamoyl-7-oxo-1,6-diazabicyclo[3.2.1]octan-6-yl)oxy)sulfonyl)oxy)-2,2-dimethylpropanoate], the “oral bioavailability (% F)” value in [1] was “greater than 10 % F”.
`CCCCCCOC(=O)C(C)(C)COS(=O)(=O)ON1C(=O)N2C[C@H]1CC[C@H]2C(N)=O` [avibactam derivative (12), hexyl 3-(((((1R,2S,5R)-2-carbamoyl-7-oxo-1,6-diazabicyclo[3.2.1]octan-6-yl)oxy)sulfonyl)oxy)-2,2-dimethylpropanoate]: in [1], the “oral bioavailability (% F)” value is “greater than 10 % F”.
As to `CCCCCCCOC(=O)C(C)(C)COS(=O)(=O)ON1C(=O)N2C[C@H]1CC[C@H]2C(N)=O` [avibactam derivative (13), heptyl 3-(((((1R,2S,5R)-2-carbamoyl-7-oxo-1,6-diazabicyclo[3.2.1]octan-6-yl)oxy)sulfonyl)oxy)-2,2-dimethylpropanoate], the avibactam oral bioavailability entry in series [2] and in series [3] was “greater than 50 % F” each time. In series [1], the “oral bioavailability (% F)” value is recorded as “greater than 10 % F”.
In the case of `CC(C)(C)OC(=O)C(C)(C)COS(=O)(=O)ON1C(=O)N2C[C@H]1CC[C@H]2C(N)=O` [avibactam derivative (14), tert-butyl 3-(((((1R,2S,5R)-2-carbamoyl-7-oxo-1,6-diazabicyclo[3.2.1]octan-6-yl)oxy)sulfonyl)oxy)-2,2-dimethylpropanoate], the “oral bioavailability (% F)” value in [1] is listed as “greater than 10 % F”.
For `CCCCCCOC(=O)CCC(C)(C)COS(=O)(=O)ON1C(=O)N2C[C@H]1CC[C@H]2C(N)=O` [avibactam derivative (36), hexyl 5-(((((1R,2S,5R)-2-carbamoyl-7-oxo-1,6-diazabicyclo[3.2.1]octan-6-yl)oxy)sulfonyl)oxy)-4,4-dimethylpentanoate], the “avibactam oral bioavailability (% F)” value in series [4] is “greater than 10 % F”.
With `CCCCCCCOC(=O)CCC(C)(C)COS(=O)(=O)ON1C(=O)N2C[C@H]1CC[C@H]2C(N)=O` [avibactam derivative (37), heptyl 5-(((((1R,2S,5R)-2-carbamoyl-7-oxo-1,6-diazabicyclo[3.2.1]octan-6-yl)oxy)sulfonyl)oxy)-4,4-dimethylpentanoate], in [4], the “avibactam oral bioavailability (% F)” value is recorded as “greater than 10 % F”.
For the compound `CCCOC(=O)C(C)(C)COS(=O)(=O)ON1C(=O)N2C[C@H]1CC[C@H]2C(N)=O` [avibactam derivative (57), propyl 3-(((((1R,2S,5R)-2-carbamoyl-7-oxo-1,6-diazabicyclo[3.2.1]octan-6-yl)oxy)sulfonyl)oxy)-2,2-dimethylpropanoate], the “avibactam oral bioavailability (% F)” value in series [4] is on record as “greater than 10 % F”.
Take `CCCCOC(=O)C(C)(C)COS(=O)(=O)ON1C(=O)N2C[C@H]1CC[C@H]2C(N)=O` [avibactam derivative (58), butyl 3-(((((1R,2S,5R)-2-carbamoyl-7-oxo-1,6-diazabicyclo[3.2.1]octan-6-yl)oxy)sulfonyl)oxy)-2,2-dimethylpropanoate]: the “avibactam oral bioavailability (% F)” value in [4] was “greater than 10 % F”.
In the case of `C[C@H]1[C@H](NC(=O)/C(=N\OC(C)(C)C(=O)O)c2csc(N)n2)C(=O)N1S(=O)(=O)O` [aztreonam], the “MIC90 with addition of avibactam” value in the series with 314 Enterobacteriaceae amounted to 0.5 µg/mL.
Take `C=CC1=C(C(=O)O)N2C(=O)[C@@H](NC(=O)/C(=N\OCC(=O)O)c3csc(N)n3)[C@H]2SC1` [cefixime]: the “MIC90 with addition of avibactam” value in the series on 314 Enterobacteriaceae stood at 1 µg/mL.
Regarding `COCC1=C(C(=O)O)N2C(=O)[C@@H](NC(=O)/C(=N\OC)c3csc(N)n3)[C@H]2SC1` [cefpodoxime], the “Estimated MIC90” value (in series [5]; in the series on 314 Enterobacteriaceae; in [6]; in series [7]; in series [8]) was above 32 µg/mL throughout. Further, the “MIC90 with addition of avibactam” value with 314 Enterobacteriaceae stood at 4 µg/mL.
In the case of `C[C@@H](O)[C@H]1C(=O)N2C(C(=O)O)=C(S[C@H]3CC[S@@+]([O-])C3)S[C@H]12` [sulopenem], the “Estimated MIC90” value in series [5] is 0.12 µg/mL; with 314 Enterobacteriaceae, 8 µg/mL; in series [6], above 32 µg/mL; in [7], 0.5 µg/mL; in series [8] it was above 32 µg/mL. Besides, the “MIC90 with addition of avibactam” value came out at 0.25 µg/mL in the series with 314 Enterobacteriaceae, 1 µg/mL in series [6] and 1 µg/mL in series [8].
In the case of `C[C@@H](O)[C@H]1C(=O)N2C(C(=O)O)=C(SC3CN(C4=NCCS4)C3)[C@H](C)[C@H]12` [tebipenem], the “Estimated MIC90” value in [5] is 0.12 µg/mL; in the series with 314 Enterobacteriaceae, 2 µg/mL; in series [6] it was above 32 µg/mL; in series [7] it was 0.25 µg/mL; in series [8], above 32 µg/mL. Further, the “MIC90 with addition of avibactam” value in the series with 314 Enterobacteriaceae was determined as 0.25 µg/mL; in [6] it was 1 µg/mL; in series [8], 1 µg/mL.
With “ethyl 3-(((((1R,2S,5R)-2-carbamoyl-7-oxo-1,6-diazabicyclo[3.2.1]octan-6-yl)oxy)sulfonyl)oxy)-2,2-dimethylpropanoate [avibactam derivative (3)]”, the AUC0-INF is recorded as 5.9 in [9] (First Quartile, avibactam); 10.9 in series [9] (Max, avibactam); 7.6 in [9] (Mean, avibactam); 3.1 in [9] (Min, avibactam); 10.1 in series [9] (ThirdQuartile, avibactam). Moreover, the AUCinf result in [9] (setting [11]) is given as “about 7,600 ng×h/mL”. Moreover, the T1/2 result in [9] (setting [11]) is recorded as “about 1.5 hours”; in series [9] (oral 600 mg of avibactam derivative (3), healthy) it was “about 1.5 hours”. In addition, the “dose of IV avibactam approximated by the oral dose” value is on record as around 400 mg in series [9] (orally administered dose not given) and around 62.5 mg in series [9] (orally administered dose of 300 mg). Further, the avibactam oral bioavailability result in [2] and in [3] was “greater than 50 % F” throughout. The “oral bioavailability (% F)” value in series [1] was “greater than 10 % F”. The results for the Thalf in series [10] (single oral dose 300 mg), in series [10] (single oral dose 900 mg) and in series [10] (single oral dose 1,350 mg) were 1.51 (0.24) h, 2.65 (0.46) h and 2.33 (0.18) h, respectively.
